Data published in patent US12280046B2, “Melanocortin subtype-2 receptor (MC2R) antagonist for the treatment of disease” (Crinetics Pharmaceuticals, Inc., priority 2021, dated 2025).
pIC50, pKi: −log10 of the molar value.

Legend:
[1] = tested on: ACTH-stimulated corticosterone; experiment: Single oral dose with repeated ACTH(1-24) challenges in rats; format: in vivo, rat; conditions: for suppression of ACTH-stimulated corticosterone: vs vehicle
Description: The ability of a single dose of Compound 1 to suppress corticosterone after repeated ACTH(1-24) (1 μg/kg) challenges was evaluated to determine the reproducibility of the ACTH-stimulated corticosterone response and the amount of time required to restore the corticosterone response to vehicle levels.
Compound 1 suppressed ACTH-stimulated corticosterone at 1 hour (44% and 88% with 3 and 30 mg/kg, respectively) and 4 hours (36% and 84% with 3 and 30 mg/kg, respectively) post-oral administration compared to vehicle treatment.

MC1R = target: T1, MC1R (Homo sapiens, UniProt Q01726); experiment: Commercially available MC1R membrane binding assay; conditions: greater than highest concentration tested
T1 construct: purchased
T1 sequence (Q01726 whole entry): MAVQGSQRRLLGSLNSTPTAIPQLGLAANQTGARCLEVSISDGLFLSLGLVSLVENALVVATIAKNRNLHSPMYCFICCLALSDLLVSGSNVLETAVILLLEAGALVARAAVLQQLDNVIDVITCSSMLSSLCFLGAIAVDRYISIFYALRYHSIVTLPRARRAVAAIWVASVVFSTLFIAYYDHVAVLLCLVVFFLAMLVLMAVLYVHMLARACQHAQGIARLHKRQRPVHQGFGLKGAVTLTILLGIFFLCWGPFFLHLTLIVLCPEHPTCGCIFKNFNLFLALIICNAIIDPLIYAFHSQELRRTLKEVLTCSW
Description: The selectivity over other human MCR subtypes was evaluated using commercially available MC1R, MC3R, MC4R, and MCSR membrane binding assays. The half maximal inhibitory concentration in the binding assays (IC50) were determined to be greater than the highest concentration tested, or >10,000 nM, >1000 nM, >10,000 nM and >1000 nM for MC1R, MC3R, MC4R and MCSR, respectively. Compound 1 is >2900-fold selective for MC2R versus the other human MCRs.

sodium channel (site 2) = experiment: SafetyScreen panel: sodium channel site 2; format: binding; conditions: 10 μM
Description: (§1) Compound 1 was tested at Eurofins Panlabs Discovery Services Taiwan, Ltd. for evaluation in their SafetyScreen™ panel of assays. This included selectivity assays at 87 targets including G-protein coupled receptors, nuclear receptors, other cell surface receptors, ion channels, enzymes, and transporters.

[2] = tested on: plasma corticosterone in mice with ACTH-secreting AtT-20 cell tumors; experiment: ACTH-secreting AtT-20 mouse pituitary cell tumor model, 14 days of daily oral dosing; format: in vivo; conditions: for suppression of plasma corticosterone: 2 hours after last dose, vs vehicle
Description: The ability of 14 days of daily oral administration of Compound 1 to suppress corticosterone in a mouse model of ACTH excess was evaluated.
Briefly, female Balb/c nude mice were subcutaneously implanted with AtT-20 corticotroph tumor cells in the rear flank (3 million cells/injection/animal) on Day 0. The no-tumor (NT) control group was injected with media only. When tumors became palpable on Day 21, mice were assigned to groups randomized for body weight, and 0, 15, 30 or 100 mg/kg/day of Compound 1. Compound 1 was orally administered for 14 days (Day 21 to Day 34).

[3] = Single oral dose ACTH challenge test in rats; format: in vivo, rat; conditions: rat, in vivo, male rats, at minimum effective dose 3 mg/kg oral
Description: (§2) The pharmacodynamic (PD) effects of Compound 1 were examined in rat by evaluating suppression of the corticosterone (cortisol in humans) response induced by administration of ACTH.
(§3) The ability of a single oral dose of Compound 1 to suppress corticosterone over 2 hours in response to an ACTH challenge test was assessed in male and female rats. Acute, IV administration of 1 μg/kg ACTH(1-24) induced a robust rise in plasma corticosterone levels compared to baseline in male and female rats.

[4] = tested on: ACTH-stimulated corticosterone secretion; experiment: Single oral dose ACTH challenge test in rats; format: in vivo, rat; conditions: for suppression of corticosterone: 1 μg/kg IV ACTH(1-24), vs vehicle
Description: as §2, §3

[5] = tested on: calcium channel L-type (phenylalkylamine); experiment: SafetyScreen panel: calcium channel L-type; format: binding; conditions: 10 μM
Description: as §1

human MC2R = target: T2, human MC2R (Homo sapiens, UniProt Q01718); experiment: Inhibition of ACTH binding: radioactive competition binding assay, hMC2R membranes
T2 construct: host or cells: CellSensor CRE-bla CHO-K1
T2 sequence (Q01718 whole entry): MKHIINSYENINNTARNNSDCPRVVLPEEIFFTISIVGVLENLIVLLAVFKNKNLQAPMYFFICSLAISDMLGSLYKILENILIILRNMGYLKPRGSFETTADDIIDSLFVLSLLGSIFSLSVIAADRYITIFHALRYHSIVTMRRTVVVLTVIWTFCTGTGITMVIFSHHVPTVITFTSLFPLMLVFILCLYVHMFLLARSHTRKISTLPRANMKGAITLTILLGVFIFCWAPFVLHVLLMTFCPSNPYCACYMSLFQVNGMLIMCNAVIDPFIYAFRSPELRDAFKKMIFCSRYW
T2 sequence (Q8TCY5 whole entry partner): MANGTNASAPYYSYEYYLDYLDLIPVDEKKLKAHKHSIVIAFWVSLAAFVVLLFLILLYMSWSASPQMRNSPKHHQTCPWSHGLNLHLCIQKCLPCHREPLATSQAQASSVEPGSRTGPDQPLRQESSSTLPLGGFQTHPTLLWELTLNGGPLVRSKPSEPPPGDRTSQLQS
Description: Crude membrane fractions are prepared from CellSensor CRE-bla CHO-K1 cells stably expressing functional hMC2 receptor (ThermoFisher #K1483). The cells are cultured to 85-100% confluency in growth media [GlutaMax DMEM (Gibco #10569-010) supplemented with 10% dialyzed fetal bovine serum (Gemini Bio-Products #100-108), 0.1 mM non-essential amino acids (Gibco #11140-050), 100 U/mL penicillin; 100 μg/mL streptomycin; 2 mM L-glutamine (Gemini Bio-Products #400-110), 5 μg/mL blasticidin (GoldBio #B-800-100), 100 μg/mL zeocin (Invitogen #R25005) and 600 μg/mL hygromycin B (GoldBio #31282-04-9)]. Cells were collected and washed in Dulbecco's phosphate buffered saline (Corning #21-031-CV). […]
The inhibition of binding to the human MC2R receptor was measured in a radioactive competition binding assay using the radiolabeled [^125I]-TYR^23]-ACTH (1-39) ligand (PerkinElmer #NEX083, custom synthesis) as the probe ligand for the receptor. […] The radioactive signal was detected using a MicroBetaTriLux 1450 LSC (PerkinElmer). […]
The selectivity over other human MCR subtypes was evaluated using commercially available MC1R, MC3R, MC4R, and MCSR membrane binding assays. […]

[6] = tested on: 87 targets including G-protein coupled receptors, nuclear receptors, other cell surface receptors, ion channels, enzymes, and transporters; experiment: Eurofins Panlabs SafetyScreen off-target selectivity panel; conditions: single concentration 10 μM
Description: as §1

[7] = tested on: serotonin 5-hydroxytryptamine 1B receptor (5-HT1B); experiment: SafetyScreen panel: 5-HT1B; format: binding; conditions: 10 μM
Description: as §1

[8] = daily oral dosing over the course of the experiment

In the case of `CCOc1ccccc1-c1ccc(N2CCN(C(=O)C3(C(F)(F)F)CCC3)C[C@H]2CC)c(C(=O)N[C@@H]2CN3CCC2CC3)n1` [Compound 1, 6-(2-ethoxyphenyl)-3-((R)-2-ethyl-4-(1-(trifluoromethyl)cyclobutane-1-carbonyl)piperazin-1-yl)-N—((S)-quinuclidin-3-yl)picolinamide], the ACTH-stimulated corticosterone ([1]; 24 and 48 hours after single oral 3 or 30 mg/kg) was “returned to normal, vehicle levels”, the “suppression of ACTH-stimulated corticosterone” value ([1]; 1 hour post-oral administration, 3 mg/kg) was 44% and the “suppression of ACTH-stimulated corticosterone” value ([1]; 1 hour post-oral administration, 30 mg/kg) was 88%. The “suppression of ACTH-stimulated corticosterone” value ([1]; 4 hours post-oral administration, 3 mg/kg) was 36%, the “suppression of ACTH-stimulated corticosterone” value ([1]; 4 hours post-oral administration, 30 mg/kg) was 84% and the pIC50 (MC1R) was < 5.00. The inhibition/activity (sodium channel (site 2)) was > 70%, the “suppression of plasma corticosterone” value ([2]; 15 mg/kg/day) was 73% and the “suppression of plasma corticosterone” value ([2]; 30 mg/kg/day) was 88%. The “increase in ACTH levels” value ([2]; 100 mg/kg/day vs vehicle) was 2.4 fold, the “suppression of plasma corticosterone” value ([2]; 100 mg/kg/day) was 92% and the body weight [2, 8] was “no significant effect”. The tumor volume [2, 8] was “no significant effect”, the Cmax [3] was 149 ng/mL and the AUC(0-t) ([3]; read-out: AUC up to the last measurable concentration (AUC0-t)) was 1400 ng·h/mL. It also gave a suppression of corticosterone ([4]; female rats, 1 mg/kg oral) of 51%, a suppression of corticosterone ([4]; female rats, 3 mg/kg oral) of 71% and a suppression of corticosterone ([4]; female rats, 10 mg/kg oral) of 88%. For the same compound, the “dose with statistically significant suppression of corticosterone” value ([4]; female rats, oral) was ≥ 1 mg/kg, the ACTH-stimulated corticosterone secretion ([4]; male and female rats, oral) was “dose-dependently suppressed” and the suppression of corticosterone ([4]; male rats, 3 mg/kg oral) was 62%. The suppression of corticosterone ([4]; male rats, 10 mg/kg oral) was 78%, the “dose with statistically significant suppression of corticosterone” value ([4]; male rats, oral) was ≥ 3 mg/kg and the minimum effective dose ([4]; male rats, oral, 1 μg/kg ACTH-stimulated acute assay) was 3 mg/kg. The inhibition/activity [5] was > 70%, the pKi (human MC2R; hMC2R membranes, [125I]-Tyr23-ACTH(1-39) probe, read-out: equilibrium inhibitory constant (Ki) in a binding assay) was > 8.00 and the “selectivity for MC2R versus the other human MCRs” value (human MC2R; over MC1R, MC3R, MC4R, MCSR) was > 2900 fold. The “activity across the panel” value [6] was “little activity across the panel” and the inhibition/activity [7] was > 70%.
